Molecular target: recombinant mTOR (FLAG-tagged, residues 1362-2549) (Homo sapiens, UniProt P42345)
Test: In vitro mTOR kinase assay (Test (a), AlphaScreen)
Assay type: biochemical
Details: ATP 20 μM, read-out: Test (a): IC50 versus mTOR kinase
Method in brief: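 AlphaScreen read-out: a phospho-T389 p70 S6K antibody on acceptor beads captures the phosphorylated biotin-peptide on donor beads, with signal loss indicating inhibition.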

Chain of recombinant mTOR (FLAG-tagged, residues 1362-2549) (P42345 1362-2549): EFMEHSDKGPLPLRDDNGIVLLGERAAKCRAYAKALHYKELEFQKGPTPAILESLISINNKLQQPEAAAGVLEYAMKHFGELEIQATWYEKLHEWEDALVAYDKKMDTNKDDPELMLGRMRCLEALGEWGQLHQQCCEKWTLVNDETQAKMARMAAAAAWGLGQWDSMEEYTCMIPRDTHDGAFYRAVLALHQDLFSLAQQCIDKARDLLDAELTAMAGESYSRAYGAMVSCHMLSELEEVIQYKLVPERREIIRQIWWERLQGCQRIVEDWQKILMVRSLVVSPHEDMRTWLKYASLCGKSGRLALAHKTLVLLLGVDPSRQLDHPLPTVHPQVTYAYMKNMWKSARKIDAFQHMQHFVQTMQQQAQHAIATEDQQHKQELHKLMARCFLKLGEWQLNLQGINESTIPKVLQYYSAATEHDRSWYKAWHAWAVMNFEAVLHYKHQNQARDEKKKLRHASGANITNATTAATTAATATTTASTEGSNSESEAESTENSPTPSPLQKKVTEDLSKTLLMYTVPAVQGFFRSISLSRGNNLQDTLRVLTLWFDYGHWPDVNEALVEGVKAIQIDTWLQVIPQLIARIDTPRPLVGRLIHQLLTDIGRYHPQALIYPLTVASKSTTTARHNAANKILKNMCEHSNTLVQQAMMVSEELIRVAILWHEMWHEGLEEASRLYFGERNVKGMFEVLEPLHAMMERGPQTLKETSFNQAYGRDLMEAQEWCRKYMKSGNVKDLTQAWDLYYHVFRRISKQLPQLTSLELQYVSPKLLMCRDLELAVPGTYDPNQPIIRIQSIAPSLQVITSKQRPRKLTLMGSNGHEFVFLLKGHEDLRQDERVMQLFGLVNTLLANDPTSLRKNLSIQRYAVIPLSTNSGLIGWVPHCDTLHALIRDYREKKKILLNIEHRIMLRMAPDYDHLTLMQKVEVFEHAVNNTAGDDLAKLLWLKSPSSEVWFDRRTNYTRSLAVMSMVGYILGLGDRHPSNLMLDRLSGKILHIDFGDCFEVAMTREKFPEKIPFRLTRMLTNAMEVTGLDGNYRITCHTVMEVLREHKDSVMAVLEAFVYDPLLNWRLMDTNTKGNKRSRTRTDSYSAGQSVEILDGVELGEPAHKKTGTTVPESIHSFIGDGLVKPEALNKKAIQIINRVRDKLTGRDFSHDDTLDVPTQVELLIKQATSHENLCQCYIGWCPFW

`CN(CCS(C)(=O)=O)C(=O)Nc1ccc(-c2nc(CS(C)(=O)=O)cc(N3CCOCC3)n2)cc1` [Example 45x, 1-methyl-1-(2-methylsulfonylethyl)-3-[4-[4-(methylsulfonylmethyl)-6-morpholin-4-yl-pyrimidin-2-yl]phenyl]urea] and `CN(C)C(=O)CNC(=O)Nc1ccc(-c2nc(CS(C)(=O)=O)cc(N3CCOCC3)n2)cc1` [Example 45z, N,N-dimethyl-2-[[4-[4-(methylsulfonylmethyl)-6-morpholin-4-yl-pyrimidin-2-yl]phenyl]carbamoylamino] acetamide] are within 1.5-fold of each other in IC50: 1100 nM for the first, 1000 nM for the second.

Compared with `CNC(=O)C1CCN(C(=O)Nc2ccc(-c3nc(CS(C)(=O)=O)cc(N4CCOCC4)n3)cc2)CC1` [Example 45y, N′-methyl-N-[4-[4-(methylsulfonylmethyl)-6-morpholin-4-yl-pyrimidin-2-yl]phenyl]piperidine-1,4-dicarboxamide], `C[C@H]1COCCN1c1cc(CN2CCOCC2)nc(-c2ccc(NC(=O)NC3CC3)cc2)n1` [Example 49f, 3-cyclopropyl-1-[4-[4-[(3S)-3-methylmorpholin-4-yl]-6-(morpholin-4-ylmethyl)pyrimidin-2-yl]phenyl]urea] is 6-fold lower in IC50: 1200 nM for the first, 200 nM for the second. The second is the more potent here.

Compared with `CNC(=O)Nc1ncc(-c2nc(CS(C)(=O)=O)cc(N3CCOC[C@@H]3C)n2)s1` [Example 46, 3-Methyl-1-[5-[4-[(3S)-3-methylmorpholin-4-yl]-6-(methylsulfonylmethyl)pyrimidin-2-yl]-1,3-thiazol-2-yl]urea], `CCNC(=O)Nc1ncc(-c2nc(CS(C)(=O)=O)cc(N3CCOC[C@@H]3C)n2)s1` [Example 46b, 1-ethyl-3-[5-[4-[(3S)-3-methylmorpholin-4-yl]-6-(methylsulfonylmethyl)pyrimidin-2-yl]-1,3-thiazol-2-yl]urea] is 23-fold lower in IC50: 140 nM for the first, 6.1 nM for the second. The second is the more potent here.

Going from `CC(C)NC(=O)Nc1ncc(-c2nc(CS(C)(=O)=O)cc(N3CCOC[C@@H]3C)n2)s1` [Example 46a, 1-[5-[4-[(3S)-3-methylmorpholin-4-yl]-6-(methylsulfonylmethyl)pyrimidin-2-yl]-1,3-thiazol-2-yl]-3-propan-2-yl-urea] to `C[C@H]1COCCN1c1cc(CS(C)(=O)=O)nc(-c2cnc(NC(=O)NC3CC3)s2)n1` [Example 46i, 3-cyclopropyl-1-[5-[4-[(3S)-3-methylmorpholin-4-yl]-6-(methylsulfonylmethyl)pyrimidin-2-yl]-1,3-thiazol-2-yl]urea], the IC50 falls from 350 nM to 97 nM (3.6-fold).

First: C[C@H]1COCCN1c1cc(CS(C)(=O)=O)nc(-c2cnc(NC(=O)Nc3ccccc3)s2)n1 [Example 46c, 1-[5-[4-[(3S)-3-methylmorpholin-4-yl]-6-(methylsulfonylmethyl)pyrimidin-2-yl]-1,3-thiazol-2-yl]-3-phenyl-urea]
Second: C[C@H]1COCCN1c1cc(CS(C)(=O)=O)nc(-c2cnc(NC(=O)Nc3ccc(F)cc3)s2)n1 [Example 46d, 3-(4-fluorophenyl)-1-[5-[4-[(3S)-3-methylmorpholin-4-yl]-6-(methylsulfonylmethyl)pyrimidin-2-yl]-1,3-thiazol-2-yl]urea]
The IC50 of the first is 1.9-fold lower: 450 nM for the first, 850 nM for the second. The first is the more potent here.

`C[C@H]1COCCN1c1cc(CS(C)(=O)=O)nc(-c2cnc(NC(=O)N(C)C3CC3)s2)n1` [Example 46e, 1-cyclopropyl-1-methyl-3-[5-[4-[(3S)-3-methylmorpholin-4-yl]-6-(methylsulfonylmethyl)pyrimidin-2-yl]-1,3-thiazol-2-yl]urea] and `C[C@H]1COCCN1c1cc(CS(C)(=O)=O)nc(-c2cnc(NC(=O)NCCN(C)C)s2)n1` [Example 46g, 3-(2-dimethylaminoethyl)-1-[5-[4-[(3S)-3-methylmorpholin-4-yl]-6-(methylsulfonylmethyl)pyrimidin-2-yl]-1,3-thiazol-2-yl]urea] are within 1.5-fold of each other in IC50: 710 nM for the first, 730 nM for the second.

First: COc1ccc(NC(=O)Nc2ncc(-c3nc(CS(C)(=O)=O)cc(N4CCOC[C@@H]4C)n3)s2)cc1 [Example 46f, 3-(4-methoxyphenyl)-1-[5-[4-[(3S)-3-methylmorpholin-4-yl]-6-(methylsulfonylmethyl)pyrimidin-2-yl]-1,3-thiazol-2-yl]urea]
Second: C[C@H]1COCCN1c1cc(CS(C)(=O)=O)nc(-c2cnc(NC(=O)Nc3cnn(C)c3)s2)n1 [Example 46h, 1-[5-[4-[(3S)-3-methylmorpholin-4-yl]-6-(methylsulfonylmethyl)pyrimidin-2-yl]-1,3-thiazol-2-yl]-3-(1-methylpyrazol-4-yl)urea]
The IC50 of the first is 19-fold higher: 1200 nM for the first, 63 nM for the second.

Compared with `CNC(=O)Nc1ncc(-c2nc(N3CCOC[C@@H]3C)cc(C(C)(C)S(C)(=O)=O)n2)s1` [Example 47, 3-Methyl-1-[5-[4-[(3S)-3-methylmorpholin-4-yl]-6-(2-methylsulfonylpropan-2-yl)pyrimidin-2-yl]-1,3-thiazol-2-yl]urea], `CCNC(=O)Nc1ncc(-c2nc(N3CCOC[C@@H]3C)cc(C(C)(C)S(C)(=O)=O)n2)s1` [Example 47d, 1-ethyl-3-[5-[4-[(3S)-3-methylmorpholin-4-yl]-6-(2-methylsulfonylpropan-2-yl)pyrimidin-2-yl]-1,3-thiazol-2-yl]urea] is 3.7-fold higher in IC50: 260 nM for the first, 970 nM for the second.

First: C[C@H]1COCCN1c1cc(C(C)(C)S(C)(=O)=O)nc(-c2cnc(NC(=O)NC3CC3)s2)n1 [Example 47a, 3-cyclopropyl-1-[5-[4-[(3S)-3-methylmorpholin-4-yl]-6-(2-methylsulfonylpropan-2-yl)pyrimidin-2-yl]-1,3-thiazol-2-yl]urea]
Second: C[C@H]1COCCN1c1cc(C(C)(C)S(C)(=O)=O)nc(-c2cnc(NC(=O)Nc3cnn(C)c3)s2)n1 [Example 47b, 1-[5-[4-[(3S)-3-methylmorpholin-4-yl]-6-(2-methylsulfonylpropan-2-yl)pyrimidin-2-yl]-1,3-thiazol-2-yl]-3-(1-methylpyrazol-4-yl)urea]
The IC50 of the first is 2.9-fold higher: 1200 nM for the first, 410 nM for the second. The second is the more potent here.

Compared with `C[C@H]1COCCN1c1cc(C(C)(C)S(C)(=O)=O)nc(-c2cnc(NC(=O)NCc3cnn(C)c3)s2)n1` [Example 47c, 1-[5-[4-[(3S)-3-methylmorpholin-4-yl]-6-(2-methylsulfonylpropan-2-yl)pyrimidin-2-yl]-1,3-thiazol-2-yl]-3-[(1-methylpyrazol-4-yl)methyl]urea], `C[C@H]1COCCN1c1cc(CNC2CC2)nc(-c2ccc(NC(=O)NCc3cnn(C)c3)cc2)n1` [Example 52a, 1-[4-[4-[(cyclopropylamino)methyl]-6-[(3S)-3-methylmorpholin-4-yl]pyrimidin-2-yl]phenyl]-3-[(1-methylpyrazol-4-yl)methyl]urea] is 4.2-fold lower in IC50: 1400 nM for the first, 330 nM for the second.

Going from `C[C@H]1COCCN1c1cc(CNC2CC2)nc(-c2ccc(NC(=O)NC3CC3)cc2)n1` [Example 49, 3-Cyclopropyl-1-[4-[4-[(cyclopropylamino)methyl]-6-[(3S)-3-methylmorpholin-4-yl]pyrimidin-2-yl]phenyl]urea] to `C[C@H]1COCCN1c1cc(CN2CC(O)C2)nc(-c2ccc(NC(=O)NC3CC3)cc2)n1` [Example 49k, 3-cyclopropyl-1-[4-[4-[(3-hydroxyazetidin-1-yl)methyl]-6-[(3S)-3-methylmorpholin-4-yl]pyrimidin-2-yl]phenyl]urea], the IC50 falls from 33 nM to 14 nM (2.4-fold). The second is the more potent here.

Going from `C[C@H]1COCCN1c1cc(CN(C)CCO)nc(-c2ccc(NC(=O)NC3CC3)cc2)n1` [Example 49a, 3-cyclopropyl-1-[4-[4-[(2-hydroxyethyl-methyl-amino)methyl]-6-[(3S)-3-methylmorpholin-4-yl]pyrimidin-2-yl]phenyl]urea] to `C[C@H]1COCCN1c1cc(CNCCN(C)C)nc(-c2ccc(NC(=O)NC3CC3)cc2)n1` [Example 49g, 3-cyclopropyl-1-[4-[4-[(2-dimethylaminoethylamino)methyl]-6-[(3S)-3-methylmorpholin-4-yl]pyrimidin-2-yl]phenyl]urea], the IC50 falls from 150 nM to 87 nM (1.7-fold). The second is the more potent here.

Going from `C[C@H]1COCCN1c1cc(CN2CCN(C)CC2)nc(-c2ccc(NC(=O)NC3CC3)cc2)n1` [Example 49b, 3-cyclopropyl-1-[4-[4-[(3S)-3-methylmorpholin-4-yl]-6-[(4-methylpiperazin-1-yl)methyl]pyrimidin-2-yl]phenyl]urea] to `C[C@H]1COCCN1c1cc(CN2CCCN(C)CC2)nc(-c2ccc(NC(=O)NC3CC3)cc2)n1` [Example 49h, 3-cyclopropyl-1-[4-[4-[(4-methyl-1,4-diazepan-1-yl)methyl]-6-[(3S)-3-methylmorpholin-4-yl]pyrimidin-2-yl]phenyl]urea], the IC50 rises from 14 nM to 180 nM (13-fold). The first is the more potent here.

`COCCNCc1cc(N2CCOC[C@@H]2C)nc(-c2ccc(NC(=O)NC3CC3)cc2)n1` [Example 49c, 3-cyclopropyl-1-[4-[4-[(2-methoxyethylamino)methyl]-6-[(3S)-3-methylmorpholin-4-yl]pyrimidin-2-yl]phenyl]urea] and `C[C@H]1COCCN1c1cc(CNCCCN(C)C)nc(-c2ccc(NC(=O)NC3CC3)cc2)n1` [Example 49e, 3-cyclopropyl-1-[4-[4-[(3-dimethylaminopropylamino)methyl]-6-[(3S)-3-methylmorpholin-4-yl]pyrimidin-2-yl]phenyl]urea] are within 1.5-fold of each other in IC50: 40 nM for the first, 32 nM for the second.

First: C[C@H]1COCCN1c1cc(CNC(C)(C)CO)nc(-c2ccc(NC(=O)NC3CC3)cc2)n1 [Example 49i, 3-cyclopropyl-1-[4-[4-[[(1-hydroxy-2-methyl-propan-2-yl)amino]methyl]-6-[(3S)-3-methylmorpholin-4-yl]pyrimidin-2-yl]phenyl]urea]
Second: C[C@H]1COCCN1Cc1cc(N2CCOC[C@@H]2C)nc(-c2ccc(NC(=O)NC3CC3)cc2)n1 [Example 49l, 3-cyclopropyl-1-[4-[4-[(3S)-3-methylmorpholin-4-yl]-6-[[(3S)-3-methylmorpholin-4-yl]methyl]pyrimidin-2-yl]phenyl]urea]
The IC50 of the first is 100-fold lower: 16 nM for the first, 1600 nM for the second. The first is the more potent here.

First: C[C@H]1COCCN1c1cc(CN2CCS(=O)(=O)CC2)nc(-c2ccc(NC(=O)NC3CC3)cc2)n1 [Example 50, 3-Cyclopropyl-1-[4-[4-[(1,1-dioxo-1,4-thiazinan-4-yl)methyl]-6-[(3S)-3-methylmorpholin-4-yl]pyrimidin-2-yl]phenyl]urea]
Second: C[C@H]1COCCN1c1cc(CN2CCN(C)CC2)nc(-c2ccc(NC(=O)NCc3cnn(C)c3)cc2)n1 [Example 52, 1-[4-[4-[(3S)-3-Methylmorpholin-4-yl]-6-[(4-methylpiperazin-1-yl)methyl]pyrimidin-2-yl]phenyl]-3-[(1-methylpyrazol-4-yl)methyl]urea]
The IC50 of the first is 880-fold lower: 1.6 nM for the first, 1400 nM for the second. The first is the more potent here.
